From patent US8609656B2, “Heteroarylphenylurea derivative” (Chugai Seiyaku Kabushiki Kaisha, priority 2004, dated 2013)
Converted amounts (≈) assume the structure as drawn. Structures can show the parent of a compound that is named as a salt.

Tests used:
[1] = tested on: human colorectal cancer cell strain HCT 116; experiment: Antitumor test, HCT 116 inoculated subcutaneously in nude mouse; assay type: in vivo, male Balb/c nude mouse; conditions: dosage 200 mg/kg, orally one time a day for 5 days, final administration day
Method: (§1) With respect to the compounds relating to the present invention and the known compound (BAY 43-9006), cell growth inhibition activity was measured.
(§2) A cell suspension of a human colorectal cancer cell strain HCT 116 was prepared with a Hunks' balanced salt solution. Its 5.0×10^6 were inoculated subcutaneously to the flank of each male Balb/c nude mouse. When the mean volume of a tumor reached 200 to 250 mm^3, a sample compound was orally administered one time a day for 5 days. The tumor volume was calculated from the calculation formula: 0.5×(minor diameter)^2×(major diameter), and the tumor growth inhibition ratio was calculated from the ratio of the tumor growth of the sample administered group to that of a reference group. The dosage in the antitumor test, the tumor growth inhibition ratio on the final administration day and the reduction in body weight on day 7 after starting administration are shown in Tables 6-1 and 6-2

[2] = molecular target: T1, recombinant Raf-1 protein (activated type GST-Raf-1) (Homo sapiens, UniProt P04049); experiment: RAF-1 enzyme inhibition test (33P incorporation into MEK 1 protein); assay type: biochemical; conditions: 10 μM ATP, GST-MEK1 substrate, 30° C., 45 minutes; read-out: Raf-1 Enzyme Inhibition, 50% Enzyme Inhibition Concentration (IC50 value)
T1 construct: fused on or other part: GST tag fused to Raf-1
Method: RAF-1 Enzyme Inhibition Test
With respect to the compounds relating to the present invention and the known compound (BAY 43-9006):
[drawing 660] the Raf-1 protein inhibition activity was measured. The enzymatic reaction was measured by incorporation of ^33P-phosphoric acid into MEK 1 protein by a recombinant Raf-1 protein. The activity was measured by preparing 50 μL of a reaction solution containing a dimethyl sulfoxide solution of the compound relating to the present invention or the compound BAY 43-9006 at a varied concentration [as the final concentration, the reaction solution containing […] of TRIS hydrochloric buffer (pH 7.5), 1 mM of dithiothreitol, 100 mM of sodium chloride, 10 mM of potassium fluoride, 1 mM of sodium vanadate, 10 mM of magnesium chloride, 10 μM of adenosine triphosphate (ATP, containing ^33P-ATP of 12580Bq), 2 μg of GST-MEK1 and 25 ng of an activated type GST-Raf-1]; keeping the reaction solution at 30° C. for 45 minutes; adding 100% trichloroacetic acid to the reaction solution in an amount twice the volume of the reaction solution to precipitate a proteinous component; recovering the precipitate on a glass filter; and measuring the radioactivity of the recovered product. The 50% inhibition concentration (IC50) was obtained from the inhibition ratio to a sample-free reference.
The compound BAYT 43-9006 was prepared on the basis of the description (Example 41) of WO 00/42012.

[3] = tested on: VEGF non-dependent human umbilical vein endothelial cells (HUVEC); experiment: Cell growth inhibition test, VEGF non-dependent HUVEC; assay type: cell-based; conditions: 72 hours, WST-1, read-out: HUVEC (VEGF Nondependence), 50% Growth Inhibition Concentration (IC50 value)
Method: (§3) Cell Growth Inhibition Test
as §1
(§4) A sample compound was in-series diluted with dimethyl sulfoxide, and then was 1/50 diluted with a Ca^2+- and Mg^2+-free phosphate-bufferized physiological saline and its 20 μL was poured to a 96-well plate. […] Each of these cell suspensions was dividedly poured to the sample added plate in 180 μL/well and cultured in a 5% carbon dioxide incubator at 37° C. After 72 hours, 20 μL of WST-(HCT 116, a product of Dojin) or WST-1 (HUVEC, a product of Roche diagnostics) was added thereto to each well and the absorbance at 450 nm (reference wavelength: 650 nm) was measured. From the growth inhibition ratio of addition of the sample compound to no-addition of the sample compound as a reference, the 50% growth inhibition IC50) of the sample compound was calculated.
(§5) With respect to the group of representative compounds of the present invention, the IC50 values of HCT 116 and HUVEC (VEGF nondependent growth and VEGF dependent growth) are shown in Tables 5-1 to 5-3.

[4] = Solubility to fasted state simulated intestinal fluid; assay type: physicochemical; conditions: fassif, kinetic from dmso stock, fasted state simulated intestinal fluid (pH 6.5), 37° C.
Outline: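 DMSO stock of compound added to FaSSIF (pH 6.5; taurocholate, phosphatidylcholine, KH2PO4, KCl) and shaken 20 h at 37° C. Filtrate diluted with ethanol:water 2:1 and read by UV absorbance; solubility taken as sample-to-standard absorbance ratio (blank-corrected) × 165 μM standard.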

VEGF dependent HUVEC = experiment: Cell growth inhibition test, VEGF dependent HUVEC; assay type: cell-based; conditions: Homo sapiens, 20 ng/mL of VEGF, 72 hours, WST-1, read-out: HUVEC (VEGF Dependence), 50% Growth Inhibition Concentration (IC50 value)
Method: as §3, §1, §4, §5

[5] = Antitumor test, reduction in body weight; assay type: in vivo, male Balb/c nude mouse; conditions: dosage 200 mg/kg, orally one time a day for 5 days, day 7 after starting administration
Method: as §2

[6] = tested on: human colorectal cancer cell strain HCT 116; experiment: Cell growth inhibition test, HCT 116; assay type: cell-based; conditions: 72 hours, read-out: HCT116, 50% Growth Inhibition Concentration (IC50 value)
Method: as §3, §1, §4, §5

T1 sequence (P04049 349-648 limits assumed): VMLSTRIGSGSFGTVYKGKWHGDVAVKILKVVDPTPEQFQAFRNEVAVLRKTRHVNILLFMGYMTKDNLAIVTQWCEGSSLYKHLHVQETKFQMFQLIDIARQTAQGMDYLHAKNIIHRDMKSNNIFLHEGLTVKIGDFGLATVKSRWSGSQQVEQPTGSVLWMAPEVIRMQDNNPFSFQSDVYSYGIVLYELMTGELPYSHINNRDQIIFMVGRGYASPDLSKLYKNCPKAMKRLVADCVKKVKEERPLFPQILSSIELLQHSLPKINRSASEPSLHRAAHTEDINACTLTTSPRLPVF

| Structure (SMILES) | IC50 [2] | solubility at 20 h [4] | IC50 [6] | Tumor Inhibition Ratio (%) [1] | IC50 [3] | IC50 (VEGF dependent HUVEC) | Body Weight Reduction ratio (%) [5] |
| --- | --- | --- | --- | --- | --- | --- | --- |
| CNC(=O)c1nccc2c1ncn2-c1ccc(NC(=O)Nc2ccc(Cl)c(C(F)(F)F)c2)cc1 [Table 1, Compound 93, 1-{4-[3-(4-Chloro-3-(trifluoro-methyl)phenyl)ureido]phenyl}-1H-imidazo[4,5-c]pyridine-4-carboxylic acid methylamide] | 0.053 µM |  |  | 79% |  |  | 6.0% |
| CC(C)C[C@H](N)C(=O)Nc1ncnc2c1ncn2-c1ccc(NC(=O)Nc2ccc(Cl)c(C(F)(F)F)c2)cc1 [Table 1, Compound 96, (S)-2-Amino-4-methyl-pentanoic acid 9-{4-[3-(4-chloro-3-(tri-fluoromethyl)phenyl)ureido}-phenyl)-9H-purin-6-yl)amide hydrochloride] | 0.044 µM | 0.102 mg/mL | 2.2 µM |  | 3.2 µM | 0.091 µM |  |
| N[C@@H](CCC(=O)Nc1ncnc2c1ncn2-c1ccc(NC(=O)Nc2ccc(Cl)c(C(F)(F)F)c2)cc1)C(=O)O [Table 1, Compound 104, (S)-2-Amino-4-(9-{4-[3-(4-chloro-3-(trifluoromethyl)-phenyl)ureido]phenyl}-9H-purin-6-ylcarbamoyl)butanoic acid hydrochloride] | 0.074 µM |  | 3.9 µM |  | 7.4 µM | 0.93 µM |  |
| CCCNC(=O)Nc1ncnc2c1ncn2-c1ccc(NC(=O)Nc2ccc(Cl)c(C(F)(F)F)c2)cc1 [Table 1, Compound 119, 1-(9-{4-[3-(4-Chloro-3-(tri-fluoromethyl)phenyl)ureido]-phenyl}-9H-purin-6-yl)-3-propylurea] | 0.013 µM | 0.039 mg/mL (≈ 73.2 µM) | 3.7 µM | 89% | 0.97 µM | 0.064 µM | 8.5% |
| CNc1ncnc2c1ncn2-c1ccc(NC(=O)Nc2cc(CN3CCN(C)CC3)cc(C(F)(F)F)c2)cc1 [Table 2, Compound 25, 1-[4-(6-(Methylamino)purin-9-yl)phenyl]-3-[3-(4-methyl-piperazin-1-ylmethyl)-5-(tri-fluoromethyl)phenyl]urea] | 0.11 µM | 0.158 mg/mL (≈ 293 µM) | 1.7 µM | 80% | 1.7 µM | 0.28 µM | 2.7% |
| CNc1ncnc2c1ncn2-c1ccc(NC(=O)Nc2cc(CN(C)C)cc(C(F)(F)F)c2)cc1 [Table 2, Compound 30, 1-(3-Dimethylaminomethyl-5-(trifluoromethyl)phenyl)-3-[4-(6-(methylamino)purin-9-yl)-phenyl]urea] | 0.19 µM | 0.105 mg/mL (≈ 217 µM) |  | 131% |  |  | 5.7% |

Now from value to compound, other results behind:

| IC50 [2] | solubility at 20 h [4] | IC50 [6] | Structure (SMILES) | Tumor Inhibition Ratio (%) [1] | IC50 [3] | IC50 (VEGF dependent HUVEC) | Body Weight Reduction ratio (%) [5] |
| --- | --- | --- | --- | --- | --- | --- | --- |
| 0.11 µM | 0.022 mg/mL | 0.7 µM | CNc1ncnc2c1ncn2-c1ccc(NC(=O)Nc2ccc(Cl)c(C(F)(F)F)c2)cc1.Cl [Table 1, Compound 36, 1-(4-Chloro-3-(trifluoromethyl)phenyl)-3-[4-(6-(methylamino)purin-9-yl)phenyl]urea hydrochloride] | 81% | 0.25 µM | 0.079 µM | 5.9% |
| 0.042 µM |  | 3.1 µM | CN(C)/C=N\c1ncnc2c1ncn2-c1ccc(NC(=O)Nc2ccc(Cl)c(C(F)(F)F)c2)cc1 [Table 1, Compound 95, N′-(9-{4-[3-(4-Chloro-3-(tri-fluoromethyl)phenyl)ureido]-phenyl}-9H-purin-6-yl}-N,N-dimethylformamidine hydro-chloride] |  | 2.6 µM | 0.47 µM |  |
| 0.083 µM | 0.061 mg/mL (≈ 116 µM) |  | CN1CCN(Cc2cc(NC(=O)Nc3ccc(-n4cnc5c(N)ncnc54)cc3)cc(C(F)(F)F)c2)CC1 [Table 2, Compound 26] | 72% |  |  | 5.0% |
| 0.041 µM | 0.023 mg/mL (≈ 41.5 µM) | 2.8 µM | CNc1ncnc2c1ncn2-c1ccc(NC(=O)Nc2ccc(CN3CC(C)NC(C)C3)c(C(F)(F)F)c2)cc1 (centres unmarked) [Table 3, Compound 46, 1-[4-(3,5-Dimethyl-piperazin-1-ylmethyl)-3-(trifluoromethyl)phenyl]-3-[4-(6-(methylamino)purin-9-yl)phenyl]urea] |  | 4.2 µM | 0.29 µM |  |
